Entries after “also recorded” stand apart in the source; their conditions may differ. Read-outs that look alike come from different tables or passages of the source.
Legend:
[1] = system: SW620 colorectal cancer cells expressing the TOP-GFP construct; assay: High-throughput screening for cell repulsion/adhesion on a high-density peptide chip, fluorescence detection; assay type: cell-based; settings: incubated for 24 hours on the peptide chip; for cell adhesion / cell repulsion on peptide spots, measured by the strength of the fluorescent signal: 1×10^7 cells in 3 ml, 30 µm × 30 µm spots
[2] = system: SW620 colorectal cancer cells expressing the TOP-GFP construct; assay: Formation of cell patterns on alternating peptide patterns, continuous fluorescence detection (live cell imaging); assay type: cell-based; settings: patterns of 3 sp × 3 sp and 1 sp (30 µm); up to 24 hours of incubation; Fig. 10
Text: The settlement of cells on alternating patterns of the cell-repellent and cell-adhesive peptides IAMTPPNATEASKPQ and FLCSLFAPVCLDRPI, respectively, were examined over time (Fig. 10). […] Peptide patterns in the form of the letters KI were made of squares of 3 sp × 3 sp. The cellular patterns are clearly distinguishable as long as the area of the cell-repellent peptide has a size of 30 µm in diameter (1 sp). To follow the formation of such cellular patterns, the behaviour of cells was examined over time (continuous fluorescence detection). Fig. 10b, 10c, 10d and 10e show the different states of the same chip fragment with cell-repellent peptides at different incubation times. Relatively quickly, in the first minutes after seeding, cells randomly distribute over the entire surface (Fig. 10b) and start to form clusters (Fig. 10c), which adhere to the bottom. After that, the cell clusters leave the area of peptides with cell repulsion (Fig. 10d). […]
On the day of incubation, cells were detached using Accutase followed by selection in serum-containing medium (DMEM). […] After 24 hours, the plates were either analysed using confocal microscopy or fixed.
For imaging of the cells, a Zeiss LSM800 confocal microscope was used. […] The microscopic slide was then transferred to a live cell incubation chamber (37°C) and observed via continuous fluorescence detection for a period of 24 hours.

pancreatic tumour = settings: human (1) or murine (2) background; Matzke-Ogi et al. 2016; cited from earlier work
CD44v6 [3] = settings: human (1) background; Matzke-Ogi et al. 2016; cited from earlier work
CD44v6 [4] = settings: murine (2) background; Matzke-Ogi et al. 2016; cited from earlier work

Substance: AIKNLPPPTKGQEGS
- cell adhesion / cell repulsion on peptide spots, measured by the strength of the fluorescent signal [1]: strongest cell-repellent properties

Substance: EVK
- cell adhesion / cell repulsion on peptide spots, measured by the strength of the fluorescent signal [1]: repellent motif for cells

Substance: FLCSLFAPVCLDRPI
- settlement of cells on alternating peptide patterns over time [2]: cell-adhesive

Substance: HPGSAVSASNAIKNL
- cell adhesion / cell repulsion on peptide spots, measured by the strength of the fluorescent signal [1]: strongest cell-repellent properties

Substance: IAMTPPNATEASKPQ
- settlement of cells on alternating peptide patterns over time [2]: cell-repellent

Substance: KENGDKKIVPKKKKP
- cell pattern (filling of peptide spots) ([1]; Fig. 2): well-defined island shape

Substance: KEQWFGNRWHEGYR
- pancreatic tumour growth and metastasis (pancreatic tumour): inhibit pancreatic tumour growth and metastasis
- co-receptor function of CD44v6 of the receptor tyrosine kinase MET (CD44v6 [3]): inhibit the co-receptor function of CD44v6

Substance: NGWQG
- co-receptor function of CD44v6 of the receptor tyrosine kinase MET (CD44v6 [4]): inhibit the co-receptor function of CD44v6
- pancreatic tumour growth and metastasis (pancreatic tumour): inhibit pancreatic tumour growth and metastasis

Substance: NRWHE
- pancreatic tumour growth and metastasis (pancreatic tumour): inhibit pancreatic tumour growth and metastasis
- co-receptor function of CD44v6 of the receptor tyrosine kinase MET (CD44v6 [3]): inhibit the co-receptor function of CD44v6

Substance: PCQRETPEGAEAKP [SEQ ID No. 13]
- cell adhesion / cell repulsion on peptide spots, measured by the strength of the fluorescent signal [1]: repulsive

Substance: QETWF
- cell adhesion / cell repulsion on peptide spots, measured by the strength of the fluorescent signal [1]: top ten cell-repellent peptides

Substance: QETWFQNGNQGKN [modified peptide of …, replacement of the amino acid W by N]
- cell adhesion / cell repulsion on peptide spots, measured by the strength of the fluorescent signal [1]: maximum cell repulsion

Substance: QETWFQNGWQGKNP
- co-receptor function of CD44v6 of the receptor tyrosine kinase MET (CD44v6 [4]): inhibit the co-receptor function of CD44v6
- pancreatic tumour growth and metastasis (pancreatic tumour): inhibit pancreatic tumour growth and metastasis

Substance: QNGNQGKN
- cell adhesion / cell repulsion on peptide spots, measured by the strength of the fluorescent signal [1]: strong cell repulsion

Substance: SDKKPVAHVVANPQAE [SEQ ID No. 11]
- cell adhesion / cell repulsion on peptide spots, measured by the strength of the fluorescent signal [1]: repulsive

Substance: TPPNATEASKPQGTT
- cell adhesion / cell repulsion on peptide spots, measured by the strength of the fluorescent signal [1]: strongest cell-repellent properties

Substance: YPYDVPDYA [HA epitope, reference compound]
- cell adhesion / cell repulsion on peptide spots, measured by the strength of the fluorescent signal [1]: strong cell-attractive; also recorded: highest adhesion to cells
